pIC50: −log10 of the molar value. Values after ≈ are worked out from the molar mass of the structure shown.
How the values were obtained:
[1] = test system: DU145 (human prostate carcinoma/lymphocytic leukemia); assay: Cell proliferation (MTS) assay, DU145; assay type: cell-based; details: three days treatment; for IC50: Homo sapiens, DU-145, 72 h
In short: (§1)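 Cells plated at about 3000 per well in RPMI-1640/10% FBS were dosed with compound one day later. Viability was read by MTS conversion (absorbance 490 nm, 1–2 h) three days after treatment began. Effect is expressed as percent of vehicle-treated growth on the same plate.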

[2] = test system: LNCaP (human prostate carcinoma); assay: Cell proliferation (MTS) assay, LNCaP; assay type: cell-based; details: three days treatment; for IC50: Homo sapiens, LNCaP, 72 h
In short: as §1

[3] = test system: MDA435 (human breast adenocarcinoma); assay: Cell proliferation (MTS) assay, MDA435; assay type: cell-based; details: three days treatment; for IC50: Homo sapiens, MDA435, 72 h
In short: as §1

[4] = test system: phosphor-AKT (S473) in Rat1 cells; assay: Rat1-IGF1 assay (IGF-1 induced phospho-AKT immunoblot); assay type: cell-based, rat; details: for IC50: Rattus norvegicus
In short: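 After 24 h serum starvation, Rat1 cells got vehicle or varying 17-HWT concentrations for 2 hours, then IGF-1 (100 ng/mL) for 30 minutes. Lysates immunoblotted for phospho-AKT (S473) and total AKT.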

[5] = test system: MDA468 (human breast cancer cell); assay: Cell proliferation (MTS) assay, MDA468; assay type: cell-based; details: three days treatment; for IC50: Homo sapiens, 72 h
In short: as §1

[6] = test system: T1, PI3K; assay: Fluorescence polarization assay for PI3K; assay type: biochemical; details: for pIC50: Table 2
T1 construct: PI3K FP IC50
In short: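 PI3K was preincubated with compound at 1% DMSO final, then reacted with PIP2/ATP substrate for 30-60 min. The reaction was stopped with a detector mix giving 10 nM red probe and 70 nM GST-GRP. Fluorescence polarization (mP, Tamra filters) was read 30-90 min later and IC50 determined.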

[7] = biological target: T2, Human TOR (Homo sapiens, UniProt P42345); assay: Human TOR (mTOR) kinase assay, DELFIA format; assay type: biochemical
T2 construct: FLAG
In short: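 Purified FLAG-TOR (800 ng/mL) phosphorylates His6-S6K ([…]) with […] ATP in Hepes pH 7.4 buffer containing MnCl2, 2 h at room temperature. Phospho-Thr389 S6K detected by DELFIA using Europium-labelled anti-P(T389)-p70S6K antibody; enzyme inhibition calculated from signal.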

IC50 ([1]; Table 2) [µg/mL]	IC50 ([2]; Table 2) [µg/mL]	IC50 ([3]; Table 2) [µg/mL]	IC50 ([4]; Table 2) [µg/mL]	IC50 ([5]; Table 2) [µg/mL]	pIC50 [6]	pIC50 ([7]; Table 2)	IC50 ([1]; Table 1) [µg/mL]	IC50 ([2]; Table 1) [µg/mL]	IC50 ([3]; Table 1) [µg/mL]	IC50 ([4]; Table 1) [µg/mL]	IC50 ([5]; Table 1) [µg/mL]	PI3K FP IC50 ([6]; Table 1) [µg/mL]	pIC50 ([7]; Table 1)	Structure (SMILES)	DU145 IC50 ([1]; Table 2) [µg/mL]	LNCaP IC50 ([2]; Table 2) [µg/mL]	MDA435 IC50 ([3]; Table 2) [µg/mL]	Rat1-IGF1 IC50 ([4]; Table 2)	MDA468 IC50 ([5]; Table 2) [µg/mL]
1.1 (≈ 2.13 µM)	0.06 (≈ 0.116 µM)	5 (≈ 9.66 µM)	> 0.1	0.62 (≈ 1.2 µM)	6.36	< 4.71								COCC1OC(=O)C(=CN(C)C(C)(C)C)C2=C(O)C(=O)C3=C(C(OC(C)=O)CC4(C)C(O)CCC34)C21C (centres unmarked) [Compound 20, Acetic acid 4-[(tert-butyl-methyl-amino)-methylene]-6,17-dihydroxy-1-methoxymethyl-10,13-dimethyl-3,7-dioxo-1,3,4,7,10,11,12,13,14,15,16,17-dodecahydro-2-oxa-cyclopenta[a]phenanthren-11-yl ester]					
25 (≈ 40.7 µM)	0.48 (≈ 0.782 µM)	22 (≈ 35.8 µM)	0.1 (≈ 0.163 µM)	6 (≈ 9.78 µM)	7.04	6.02								COCC1OC(=O)C(=CN2CCN(C3CCN(C)CC3)CC2)C2=C(O)C(=O)C3=C(C(OC(C)=O)CC4(C)C(O)CCC34)C21C (centres unmarked) [Compound 34, Acetic acid 6,17-dihydroxy-1-methoxymethyl-10,13-dimethyl-4-[4-(1-methyl-piperidin-4-yl)-piperazin-1-ylmethylene]-3,7-dioxo-1,3,4,7,10,11,12,13,14,15,16,17-dodecahydro-2-oxa-cyclopenta[a]phenanthren-11-yl ester]					
17 (≈ 28.3 µM)	0.28 (≈ 0.465 µM)	21 (≈ 34.9 µM)	0.02 (≈ 0.0332 µM)	3.9 (≈ 6.48 µM)	7.72	5.63								COCC1OC(=O)C(=CN(C)CCCN2CCN(C)CC2)C2=C(O)C(=O)C3=C(C(OC(C)=O)CC4(C)C(O)CCC34)C21C (centres unmarked) [Compound 26, Acetic acid 6,17-dihydroxy-1-methoxymethyl-10,13-dimethyl-4-({methyl-[3-(4-methyl-piperazin-1-yl)-propyl]-amino}-methylene)-3,7-dioxo-1,3,4,7,10,11,12,13,14,15,16,17-dodecahydro-2-oxa-cyclopenta[a]phenanthren-11-yl ester]					
23 (≈ 39.1 µM)	0.35 (≈ 0.595 µM)	30 (≈ 51 µM)	0.1 (≈ 0.17 µM)	5 (≈ 8.49 µM)	7.62	5.64								COCC1OC(=O)C(=CN(C)CCCN2CCOCC2)C2=C(O)C(=O)C3=C(C(OC(C)=O)CC4(C)C(O)CCC34)C21C (centres unmarked) [Compound 27, Acetic acid 6,17-dihydroxy-1-methoxymethyl-10,13-dimethyl-4-{[methyl-(3-morpholin-4-yl-propyl)-amino]-methylene}-3,7-dioxo-1,3,4,7,10,11,12,13,14,15,16,17-dodecahydro-2-oxa-cyclopenta[a]phenanthren-11-yl ester]					
12 (≈ 22.4 µM)	0.09 (≈ 0.168 µM)	5 (≈ 9.34 µM)	0.1 (≈ 0.187 µM)	2.3 (≈ 4.29 µM)	6.70	5.52								COCC1OC(=O)C(=CN(C)CC(O)CO)C2=C(O)C(=O)C3=C(C(OC(C)=O)CC4(C)C(O)CCC34)C21C (centres unmarked) [Compound 36, Acetic acid 4-{[(2,3-dihydroxy-propyl)-methyl-amino]-methylene}-6,17-dihydroxy-1-methoxymethyl-10,13-dimethyl-3,7-dioxo-1,3,4,7,10,11,12,13,14,15,16,17-dodecahydro-2-oxa-cyclopenta[a]phenanthren-11-yl ester]					
20 (≈ 33.2 µM)	0.5 (≈ 0.831 µM)	22 (≈ 36.6 µM)	0.1 (≈ 0.166 µM)	4.1 (≈ 6.81 µM)	7.41	6.60								COCC1OC(=O)C(=CN2CCN(CCCN(C)C)CC2)C2=C(O)C(=O)C3=C(C(OC(C)=O)CC4(C)C(O)CCC34)C21C (centres unmarked) [Compound 32, Acetic acid 4-[4-(3-dimethylamino-propyl)-piperazin-1-ylmethylene]-6,17-dihydroxy-1-methoxymethyl-10,13-dimethyl-3,7-dioxo-1,3,4,7,10,11,12,13,14,15,16,17-dodecahydro-2-oxa-cyclopenta[a]phenanthren-11-yl ester]					

Second part, the molecule before the results:

Structure (SMILES)	IC50 ([1]; Table 2) [µg/mL]	IC50 ([2]; Table 2) [µg/mL]	IC50 ([3]; Table 2) [µg/mL]	IC50 ([4]; Table 2) [µg/mL]	IC50 ([5]; Table 2) [µg/mL]	pIC50 [6]	pIC50 ([7]; Table 2)	IC50 ([1]; Table 1) [µg/mL]	IC50 ([2]; Table 1) [µg/mL]	IC50 ([3]; Table 1) [µg/mL]	IC50 ([4]; Table 1) [µg/mL]	IC50 ([5]; Table 1) [µg/mL]	PI3K FP IC50 ([6]; Table 1) [µg/mL]	pIC50 ([7]; Table 1)	DU145 IC50 ([1]; Table 2) [µg/mL]	LNCaP IC50 ([2]; Table 2) [µg/mL]	MDA435 IC50 ([3]; Table 2) [µg/mL]	Rat1-IGF1 IC50 ([4]; Table 2)	MDA468 IC50 ([5]; Table 2) [µg/mL]
COCC1OC(=O)C(=CN2CCC(C(=O)OC)CC2)C2=C(O)C(=O)C3=C(C(OC(C)=O)CC4(C)C(O)CCC34)C21C (centres unmarked) [Compound 22, 1-(11-Acetoxy-6,17-dihydroxy-1-methoxymethyl-10,13-dimethyl-3,7-dioxo-1,7,10,11,12,13,14,15,16,17-decahydro-2-oxa-cyclopenta[a]phenanthren-4-ylidenemethyl)-piperidine-4-carboxylic acid methyl ester]	17 (≈ 29.6 µM)	0.29 (≈ 0.506 µM)	18 (≈ 31.4 µM)	0.1 (≈ 0.174 µM)	3.5 (≈ 6.1 µM)	7.28	5.77												
COCC1OC(=O)C(=CN2CCCC2C(=O)OC)C2=C(O)C(=O)C3=C(C(OC(C)=O)CC4(C)C(O)CCC34)C21C (centres unmarked) [Compound 40, 1-(11-Acetoxy-6,17-dihydroxy-1-methoxymethyl-10,13-dimethyl-3,7-dioxo-1,7,10,11,12,13,14,15,16,17-decahydro-2-oxa-cyclopenta[a]phenanthren-4-ylidenemethyl)-pyrrolidine-2-carboxylic acid methyl ester]						6.35	< 4.75								1.85	0.085	5.5	>0.1(hint) μg/ml	0.75
COCC1OC(=O)C(=CN2CCCC2C(=O)OC)C2=C(O)C(=O)C3=C(C(OC(C)=O)CC4(C)C(O)CCC34)C21C (centres unmarked) [Compound 39, 1-(11-Acetoxy-6,17-dihydroxy-1-methoxymethyl-10,13-dimethyl-3,7-dioxo-1,7,10,11,12,13,14,15,16,17-decahydro-2-oxa-cyclopenta[a]phenanthren-4-ylidenemethyl)-pyrrolidine-2-carboxylic acid methyl ester]	2.4 (≈ 4.29 µM)	0.043 (≈ 0.0768 µM)	4 (≈ 7.15 µM)	0.1 (≈ 0.179 µM)	1.2 (≈ 2.14 µM)	6.11	4.91												
COCC1OC(=O)C(=CN(C)CC(=O)OC(C)(C)C)C2=C(O)C(=O)C3=C(C(OC(C)=O)CC4(C)C(O)CCC34)C21C (centres unmarked) [Compound 35, [(11-Acetoxy-6,17-dihydroxy-1-methoxymethyl-10,13-dimethyl-3,7-dioxo-1,7,10,11,12,13,14,15,16,17-decahydro-2-oxa-cyclopenta[a]phenanthren-4-ylidenemethyl)-methyl-amino]-acetic acid tert-butyl ester]	3 (≈ 5.21 µM)	0.1 (≈ 0.174 µM)	5.5 (≈ 9.55 µM)	0.1 (≈ 0.174 µM)	1.4 (≈ 2.43 µM)	5.80	4.86												
COC[C@H]1OC(=O)/C(=C/Nc2ccccc2)C2=C(O)C(=O)C3=C([C@H](OC(C)=O)C[C@]4(C)[C@@H](O)CC[C@@H]34)[C@]21C [Compound 3, (1E,4S,4aR,5R,6aS,7S,9aR)-1-(anilinomethylene)-7,11-dihydroxy-4-(methoxymethyl)-4a,6a-dimethyl-2,10-dioxo-1,2,4,4a,5,6,6a,7,8,9,9a,10-dodecahydroindeno[4,5-h]isochromen-5-yl acetate]								12	3.5	15	> 0.1	5	0.228	5.04					

From patent US7666901B2, “Analogs of 17-hydroxywortmannin as PI3K inhibitors” (Wyeth, priority 2004, dated 2010)
